What all share (design): species or system S. cerevisiae
The subject of test [1] is isolated mitochondria. Nature of the test: Respirometry (oxygen consumption) of mitochondria under calcium stress. Conditions: mitochondria 1 mg ml^−1, SS-31 54.4 μM, CaCl2 1 mM, preincubated on ice 20 min; n = 10–12. On the procedure:
(§1) Figure 7. SS peptide effects on Ca^2+-membrane interactions and mitochondrial cation stress. A, profiles of surface potential decay (top) and ion distribution (bottom) based on GCS theory in the presence or absence of SS-31 (see supporting Results H for model description). B, effect of SS peptides on Ca^2+ accumulation at model membrane interfaces. Time course measurements of CG-5N emission were performed in solutions with LUVs (20 mol % TOCL in host POPC background, [lipid]^eff = 100 μM) prebound with SS peptide at the indicated concentration followed by titration of CaCl2 in increments of 1 nmol at 20-s intervals starting at t = 60 s. C and D, effect of SS peptides on mitochondrial Ca^2+ uptake. […] Spectral deconvolution yielded the indicated components (see Fig. S19, A and B), which were used to quantify the area ratios of L2/iso in F (values shown are means ± S.D. (error bars) (n = 3). G, respirometry analysis. Mitochondria (1 mg ml^−1) were treated in the absence or presence of SS-31 (54.4 μM) or CaCl2 (1 mM) as indicated and measured for state 2 respiration (n = 10–12 each).
(§2) Finally, we measured the effects of SS peptides on mitochondrial calcium stress that may occur independently of Ca^2+ uptake into the matrix. […] To corroborate these findings, we measured mitochondrial oxygen consumption rates under similar conditions of SS peptide treatment and calcium stress. […]

Test [2] concerns isolated mitochondria. As to the kind of experiment: 31P ssNMR of mitochondrial membrane integrity under calcium stress. On the procedure:
as §1, §2

Test [3] concerns isolated mitochondria. Nature of the test: TMRM time course of ΔΨm generation in mitochondria with ETH-129 and calcium. The protocol:
as §1, with “s.” for “s. C and D, effect of SS peptides on mitochondrial Ca^2+ uptake.”
Second, we measured the effects of SS peptides on mitochondrial Ca^2+ flux. […] In these experiments, we monitored the relative ΔΨm using the potentiometric probe tetramethylrhodamine methyl ester (TMRM) (the emission of which is inversely related to membrane potential; Fig. S17E) and, in parallel, monitored the external [Ca^2+] using CG-5N (Fig. 7C and Fig. S18A). […]

Where a SMILES comes first, the peptide text is derived from it. [ ]: non-standard residue; d: D form. Dmt = Cc1cc(O)cc(C)c1C[C@H](N)C(=O)O

As to `Cc1cc(O)cc(C)c1C[C@H](NC(=O)[C@H](N)CCCNC(=N)N)C(=O)N[C@@H](CCCCN)C(=O)N[C@@H](Cc1ccccc1)C(N)=O` [SS-31, D-Arg-2′6′-dimethyl-Tyr-Lys-Phe-NH2] (H-[dR][Dmt]KF-NH2), the “effect on calcium-induced increase in basal (state 2) respiration” value in test [1] is recorded as “prevented”. The “effect on NMR-detected membrane degradation caused by high calcium load” value in test [2] (acute treatment 8.5 nmol of peptide/mg of mitochondrial protein (0.6 mM, 70 mg ml^−1), up to 5 mM CaCl2, 4 °C) is given as “reduced NMR-detected membrane degradation”. Also, the “effect on L2 peak (lamellar phospholipid bilayers), L2/iso area ratio” value in test [2] (spectral deconvolution, 5 mM CaCl2, n = 3) was “significant preservation of the L2 peak”. The “dose response of effect on Ca2+-dependent ΔΨm generation delay” value in test [3] (25 μM CaCl2, 1 mM NADH, n = 3) was “dose-dependent and saturable”. In addition, the “effect on temporal delay in mitochondrial energization (ΔΨm generation) with Ca2+” value in test [3] (ETH-129, NADH, increasing [Ca2+], TMRM) is “reduced the extent of this temporal delay”.

(Values after publication PMC7247319, “The mitochondria-targeted peptide SS-31 binds lipid bilayers and modulates surface electrostatics as a key component of its mechanism of action” (The Journal of Biological Chemistry, 2020).)
